Data published in publication PMC8795149, “Characterization of a novel non-steroidal glucocorticoid receptor agonist optimized for topical treatment” (Scientific Reports, 2022).

Key:
[1] = tested on: TPA-induced skin inflammation; experiment: TPA study in mice, CP applied on the non-inflamed ear; type: in vivo, mouse; details: CP applied topically on the non-inflamed ear, tested dose range 0.03–3 µg/ear
Description: Figure S6. Effect of topically applied CP on TPA induced ear biopsy weight in mice (upper panel). Treatment scheme can be seen in the lower panel. Ear oedema was induced by TPA on the left ear on day 1, 3, 5, 8 and 10 and CP was topically administered daily on either left or right ear on day 8 to 11. The left ear biopsy weight was measured on day 11. Significant effect was seen also when CP was administered on the right ear at the 2 highest doses, indicating contribution to the local effect, by systemic exposure

[2] = Stability in whole blood (rat); type: in vitro ADME; details: 0.1 µM, 37 °C
Description: (§1) Compounds were incubated in diluted fresh rat, dog, minipig or human whole blood (heparin stabilized, 50% blood and 50% phosphate buffer with 1% bovine serum albumin) for 120 min at 0.1 µM, at 37 °C and the half-lives were determined. Samples were taken at 0, 15, 30, 60 and 120 min, and reactions were terminated by addition of acetonitrile containing analytical internal standard (IS). Test compound depletion was determined using time-of-flight mass spectrometry in positive ion mode (TOF–MS; AB Sciex API5600). Elimination rate constants (k) were calculated from peak areas and the half-lives was determined (t½ = ln2/k).

[3] = Stability in whole blood (dog); type: in vitro ADME; details: 0.1 µM, 37 °C
Description: as §1

[4] = Stability in whole blood (minipig); type: in vitro ADME; details: 0.1 µM, 37 °C
Description: as §1

[5] = Hepatocyte stability (rat); type: in vitro ADME; details: predicted hepatic clearance, well stirred model
Description: (§2) Compounds (1.0 µM) were incubated in duplicates with rat, dog, minipig or human hepatocytes (1.0 million cells/mL) in phosphate buffer, in 96-well plates for 120 min (37 °C). Reactions were stopped by addition of cold acetonitrile, at 0, 10, 30, 60, and 120 min, and dispensed into cold acetonitrile to stop the reactions. Plates were centrifuged for 30 min and samples were analysed using liquid chromatography coupled to a time-of-flight mass spectrometer. Compound depletion over time was used to estimate the elimination rate constant, from which the apparent intrinsic clearance (CLapp), and half-life (t½), were calculated.

[6] = Hepatocyte stability (minipig); type: in vitro ADME; details: predicted hepatic clearance, well stirred model
Description: as §2

[7] = In vivo pharmacokinetics in rat, i.v.
Description: The pharmacokinetic profile of LEO 134310 was determined in rat (male Sprague Dawley) and dog (female Beagle) after intravenous (i.v.) injection at 1 mg/kg. LEO 134310 was administered in isotonic cyclodextrin solution at 0.5 mg/mL (0.1% Citrate buffer pH 4, 20% hydroxy-propyl-β-cyclodextrin in 0.2% NaCl). The i.v. dose was given as a bolus in rats and as a slow injection over 2 min in dogs. The dosing volume was 2 mL/kg. Blood was immediately diluted after sampling in an inhibitory cocktail containing acetylcholinesterase inhibitor Dichlorvos [1 mg/mL in an 8 mg/mL K2EDTA solution in phosphate buffer (PBS)] and samples were stored at − 80 °C until analysis. Samples were analyzed by LC–MS/MS using an API 5500/API 6500 QTRAP mass spectrometer. Pharmacokinetic parameters were derived from a non-compartment model in Phoenix64 (Pharsight, Certara).

[8] = target: T1, recombinant human full-length GR (Homo sapiens, UniProt P04150); experiment: GR binding assay (fluorescence polarization); details: Fluormone GS1
T1 construct: 4 nM recombinant human full-length GR (Thermo Fisher); purchased Thermo Fisher
T1 sequence (P04150 1-777): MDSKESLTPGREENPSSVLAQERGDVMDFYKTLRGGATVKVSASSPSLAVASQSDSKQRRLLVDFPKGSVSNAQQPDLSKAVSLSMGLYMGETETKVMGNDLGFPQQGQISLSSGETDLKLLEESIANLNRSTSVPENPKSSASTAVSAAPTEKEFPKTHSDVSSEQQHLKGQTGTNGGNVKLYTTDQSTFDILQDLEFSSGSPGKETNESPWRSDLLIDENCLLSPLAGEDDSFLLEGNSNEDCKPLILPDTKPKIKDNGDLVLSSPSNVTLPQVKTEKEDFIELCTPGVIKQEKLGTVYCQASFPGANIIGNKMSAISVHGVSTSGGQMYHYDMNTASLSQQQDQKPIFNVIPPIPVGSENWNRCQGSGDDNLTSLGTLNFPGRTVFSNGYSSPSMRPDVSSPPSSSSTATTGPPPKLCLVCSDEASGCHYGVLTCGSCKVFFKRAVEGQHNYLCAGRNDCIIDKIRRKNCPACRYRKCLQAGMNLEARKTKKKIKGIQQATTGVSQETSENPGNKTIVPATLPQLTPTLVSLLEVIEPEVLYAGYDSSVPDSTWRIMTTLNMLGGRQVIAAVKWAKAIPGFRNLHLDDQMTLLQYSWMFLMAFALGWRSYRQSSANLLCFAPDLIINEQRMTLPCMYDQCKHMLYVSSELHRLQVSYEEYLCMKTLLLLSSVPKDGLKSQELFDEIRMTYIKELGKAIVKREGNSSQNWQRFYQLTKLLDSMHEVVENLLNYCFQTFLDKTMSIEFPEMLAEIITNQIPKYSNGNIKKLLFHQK
Description: Binding of GR agonists to human GR was evaluated in a fluorescence polarization assay. 2.5 nM Fluormone GS1 (Thermo Fisher) and 4 nM recombinant human full-length GR (Thermo Fisher) were incubated in the presence of individual test and control compounds. Changes in polarization values were used to determine the relative affinity of test compounds for the GR.

[9] = TPA mouse model, blood concentration after topical dose; type: in vivo; details: blood concentrations at 2 h after the last topical dose
Description: Treatments were performed by topical application of either vehicle (90% acetone, 10% transcutol), Treatments were applied twice daily on days 8, 9, 10, and once on day 11 (20–10 μL to each side of ear) with at least 5 h between the first and second treatment. TPA challenge on days 8 and 10 was performed at least 1 h after the first treatment. On day 11, animals were sacrificed 2 h after the last dosing. Blood was sampled by cardiac puncture from animals anaesthetized with isoflurane. Thereafter, ear biopsies were taken with a biopsy punch (8 mm diameter), weighed and stored at – 80 °C. Plasma osteocalcin levels were analyzed by EIA (rat-MID, IDS, UK). Effective inhibitory doses (ID50) were determined from a sigmoid I(max) model in Phoenix64, Pharsight, Certara. Therapeutic Index (TI) was calculated either as ID50 for spleen weight reduction or ID50 for blood osteocalcin concentrations, divided by ID50 for ear weight reduction.

CCC(=O)O[C@]1(C(=O)CCl)[C@@H](C)C[C@H]2[C@@H]3CCC4=CC(=O)C=C[C@]4(C)[C@@]3(F)[C@@H](O)C[C@@]21C [CP, Clobetasol Propionate]
Dose from which significant anti-inflammatory effect due to systemic exposure was seen [1]: ≥ 1 µg/ear

C[C@H](NC(=O)[C@H]1CCCO1)[C@H](Oc1ccc(C(=O)O[C@H]2CCCN(C(=O)[C@H]3COC(=O)C3)C2)cc1)c1ccc(C2CC2)cc1 [LEO 134310]
In vitro (blood) half-life [2]: 2.2 (2.1, 2.2) (n = 2) min | In vitro (blood) half-life [3]: 3.3 ± 2.1 (n = 5) min | In vitro (blood) half-life [4]: 3.8 (n = 1) min | In vitro (hepatocytes) CLH [5]: 57 (n = 1) mL/min/kg | In vitro (hepatocytes) CLH [6]: > 35 (n = 1) mL/min/kg | In vivo clearance relative to liver blood flow [7]: 5 fold | In vivo clearance ([7]; i.v. 1 mg/kg): 360 ± 85 (n = 3) mL/min/kg | In vivo terminal half-life ([7]; i.v. 1 mg/kg): 190 ± 171 (n = 3) min | EC50 [8]: 14 nM | Higher dose needed to achieve systemic exposure comparable to BMV [9]: 800 fold | Higher dose needed to achieve systemic exposure comparable to CP [9]: 200 fold
